Where “and” joins values, the source holds several entries; their conditions need not be identical. Equal entries are not always repeated.
Tests used:
[1] = xn = mol fraction of the nth substance listed; conditions: 101 kPa, Liquid; for speed of sound: Pulse-echo method
[2] = 101 kPa, Liquid; for speed of sound: Pulse-echo method

CCc1ccccc1 [ethylbenzene] + CCCCCCCCCO
[1], x1 = 1
Conditions | mass density [kg/m3] | speed of sound [m/s]
293.15 K | 867.14 | 1340
303.15 K | 858.37 | 1298
313.15 K | 849.55 | 1257

CCc1ccccc1 [ethylbenzene]
[2]
Conditions | mass density [kg/m3] | speed of sound [m/s]
293.15 K | 867.14 | 1340
303.15 K | 858.37 | 1298
313.15 K | 849.55 | 1257

CCCCCCCCCO [nonan-1-ol]
[2]
Conditions | mass density [kg/m3] | speed of sound [m/s]
293.15 K | 827.7 | 1381
303.15 K | 820.82 | 1347
313.15 K | 813.88 | 1314

Cc1ccc(C)cc1 [1,4-dimethylbenzene] + CCCCCCCCCO
[1], x1 = 1
Conditions | mass density [kg/m3] | speed of sound [m/s]
293.15 K | 860.96 | 1330
303.15 K | 852.25 | 1289
313.15 K | 843.51 | 1249

Cc1ccccc1C [1,2-dimethylbenzene]
[2]
Conditions | mass density [kg/m3] | speed of sound [m/s]
293.15 K | 879.49 | 1369
303.15 K | 871.14 | 1328
313.15 K | 862.59 | 1289

CCCCCCCCCCO [decan-1-ol]
[2]
Conditions | mass density [kg/m3] | speed of sound [m/s]
293.15 K | 829.98 | 1396
303.15 K | 823.1 | 1362
313.15 K | 816.27 | 1329

Cc1cccc(C)c1 [1,3-dimethylbenzene]
[2]
Conditions | mass density [kg/m3] | speed of sound
293.15 K | 864.18 | 1341 m/s and 1340 m/s
303.15 K | 855.56 | 1300 m/s
313.15 K | 846.9 | 1259 m/s

Cc1ccccc1C [1,2-dimethylbenzene] + CCCCCCCCCO
[1], x1 = 1
Conditions | mass density [kg/m3] | speed of sound [m/s]
293.15 K | 879.49 | 1369
303.15 K | 871.14 | 1328
313.15 K | 862.59 | 1289

Cc1ccc(C)cc1 [1,4-dimethylbenzene]
[2]
Conditions | mass density [kg/m3] | speed of sound [m/s]
293.15 K | 860.96 | 1330
303.15 K | 852.25 | 1289
313.15 K | 843.51 | 1249

Cc1ccccc1C [1,2-dimethylbenzene] + CCCCCCCCCCO
[1], x1 = 1
Conditions | mass density [kg/m3] | speed of sound [m/s]
293.15 K | 879.49 | 1369
303.15 K | 871.14 | 1328
313.15 K | 862.59 | 1289

Cc1ccc(C)cc1 [1,4-dimethylbenzene] + CCCCCCCCCCO
[1], x1 = 1
Conditions | mass density [kg/m3] | speed of sound [m/s]
293.15 K | 860.96 | 1330
303.15 K | 852.25 | 1289
313.15 K | 843.51 | 1249

Cc1cccc(C)c1 [1,3-dimethylbenzene] + CCCCCCCCCO
[1], x1 = 1
Conditions | mass density [kg/m3] | speed of sound [m/s]
293.15 K | 864.18 | 1341
303.15 K | 855.56 | 1300
313.15 K | 846.9 | 1259

CCc1ccccc1 [ethylbenzene] + CCCCCCCCCCO
[1], x1 = 1
Conditions | mass density [kg/m3] | speed of sound [m/s]
293.15 K | 867.14 | 1340
303.15 K | 858.37 | 1298
313.15 K | 849.55 | 1257

CCCCCCCCCCO [decan-1-ol] + Cc1cccc(C)c1
[1], x2 = 0
Conditions | mass density [kg/m3] | speed of sound [m/s]
293.15 K | 829.98 | 1396
303.15 K | 823.1 | 1362
313.15 K | 816.27 | 1329

Reference: the NIST ThermoML archive (doi:10.1021/je100734t)
